Reference: PMC11803819, “Chemical composition, antioxidant activities, and enzyme inhibitory effects of Lespedeza bicolour Turcz. essential oil” (Journal of Enzyme Inhibition and Medicinal Chemistry, 2025)
≈ marks a conversion by molar mass, not a printed value.

Assays:
[1] = system: acetylcholinesterase (AChE); conditions: previous studies; cited from earlier work
[2] = ABTS radical scavenging assay; conditions: positive control
Protocol: The experimental procedure is derived from the previous methods with some modifications[35]^,[36]. A mixture of 7.0 mM 2,2-azinobis(3-ethylbenzothiazoline-6-sulfonate) (ABTS) solution and 2.6 mM potassium persulfate was prepared to generate the ABTS^•+ free radical. The mixture was subsequently stored in the dark at room temperature for 12 h, facilitating the entire generation of the ABTS^•+ free radical. Additionally, ethanolic EO solutions were prepared at 50, 25, 10, 5, 2.5, and 1 mg/mL concentrations. A microplate reader (Epoch, Biotech company, Minneapolis, MN, USA) was utilised to ascertain the absorbance of the solution, delineated as the absorbance at 734 nm six minutes post-initiation of the reaction. For comparison, ethanol was used as the blank and gradient-diluted solvent. Meanwhile, 0.5 mg/mL 6‐hydroxy‐2,5,7,8‐tetramethylchroman‐2‐carboxylic acid (Trolox) was utilised as the positive control. The ABTS radical scavenging capacity (RSC%) was calculated using the Equation (1). (1) RSC%=A0−A/A0×100% where A0 and A are the absorbance of 200 μL diluted ABTS^•+ solution mixed with 50 μL ethanol and 50 μL sample solution, respectively, at 734 nm. IC50 was then calculated. All tests were performed in triplicates.

[3] = DPPH radical scavenging assay; conditions: positive control
Protocol: The experimental procedure was adapted from previous research with minor modifications. The concentrations of Trolox (positive control) and the mother solution of the essential oil EO were 1.0 mg/mL and 20 mg/mL, respectively, in an ethanolic system. 50 μL of the positive control or EO solution was pipetted into a 96‐well microplate and 200 μL of a 2,2-diphenyl-1-picrylhydrazyl (DPPH) solution. The microplate was incubated in the dark at 25 °C for 30 min, and then the absorbance was measured at 517 nm using an Epoch microplate absorbance spectrophotometer (Epoch, Biotech company, Minneapolis, MN, USA). The DPPH radical scavenging capacity (RSC%) was calculated using the Equation (2). […] (2) RSC%=(1−ASample−ASample Blank/AControl)×100% where, ASample is the absorbance of the tested sample at different concentrations, AControl is the absorbance of the control (ethanolic DPPH solution), and ASample Blank is the absorbance of the ethanol sample without DPPH.

[4] = molecular target: β-lactamase; conditions: cited from earlier work

Sequence of acetylcholinesterase (AChE) (P22303 32-614, species assumed): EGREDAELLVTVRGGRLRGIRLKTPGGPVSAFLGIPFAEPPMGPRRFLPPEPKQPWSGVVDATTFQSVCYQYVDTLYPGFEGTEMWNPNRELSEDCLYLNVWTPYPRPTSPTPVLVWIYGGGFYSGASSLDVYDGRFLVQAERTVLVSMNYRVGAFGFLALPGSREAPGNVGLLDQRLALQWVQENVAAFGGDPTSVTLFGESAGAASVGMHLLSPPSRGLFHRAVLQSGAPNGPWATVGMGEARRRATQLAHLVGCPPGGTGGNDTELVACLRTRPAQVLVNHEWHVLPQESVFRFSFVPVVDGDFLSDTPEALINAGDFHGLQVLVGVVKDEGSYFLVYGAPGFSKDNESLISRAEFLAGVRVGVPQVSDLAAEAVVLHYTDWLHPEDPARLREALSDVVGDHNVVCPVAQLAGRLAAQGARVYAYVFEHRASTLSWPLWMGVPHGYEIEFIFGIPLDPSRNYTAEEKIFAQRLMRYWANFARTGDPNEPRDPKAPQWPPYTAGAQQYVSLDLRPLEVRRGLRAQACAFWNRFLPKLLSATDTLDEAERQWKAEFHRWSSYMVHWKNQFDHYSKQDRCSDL

In the case of `C=C[C@](C)(O)CC[C@@H]1[C@@]2(C)CCCC(C)(C)[C@@H]2CC[C@@]1(C)O` [Sclareol], the “Inhibition against AChE” value [1] is given as “significant inhibition”.

For `Cc1c(C)c2c(c(C)c1O)CCC(C)(C(=O)O)O2` (stereo not shown) [Trolox, 6‐hydroxy‐2,5,7,8‐tetramethylchroman‐2‐carboxylic acid], the “IC50 of ABTS radical scavenging capacity” value [2] was 6.15 ± 0.15 µg/mL and the “IC50 of DPPH scavenging capacity” value [3] was 9.94 ± 0.20 µg/mL.

For `COC(=O)C=Cc1ccccc1` [methyl cinnamate], the IC50 [4] is given as 11.6 µg/mL (≈ 71.5 µM).
